Laboratory results reported in patent publication US6160004A, “C-10 carbon-substituted artemisinin-like trioxane compounds having antimalarial, antiproliferative and antitumor activities” (priority 1998, dated 2000).

Tests used:
60 cell line panel = assay: NCI 60 cell line panel, whole panel; details: panel
NCI-H226 = assay: cells; type: cell-based; details: Homo sapiens; NCI-H226, non-small cell lung cancer, 48 h; read-out: Log10 GI50 (converted)
U251 = assay: cells; type: cell-based; details: Homo sapiens, U-251; U251, CNS cancer, 48 h; read-out: Log10 GI50 (converted)
RXF 393 = assay: cells; type: cell-based; details: Homo sapiens; RXF 393, renal cancer, 48 h; read-out: Log10 TGI
TK-10 = assay: cells; type: cell-based; details: Homo sapiens, TK-10, renal cancer, 48 h
KM12 = assay: cells; type: cell-based; details: Homo sapiens; KM12, colon cancer, 48 h; read-out: Log10 GI50 (converted)
RPMI-8226 = assay: NCI 60 cell line panel screening assay (SRB), RPMI-8226; type: cell-based; details: Homo sapiens; RPMI-8226, leukemia, 48 h; read-out: Log10 GI50 (converted)
MOLT-4 [1] = details: MOLT-4, FIG. 6
OVCAR-5 = assay: cells; type: cell-based; details: Homo sapiens; OVCAR-5, ovarian cancer, 48 h; read-out: Log10 GI50 (converted)
HT29 = assay: cells; type: cell-based; details: Homo sapiens, HT-29; HT29, colon cancer, 48 h; read-out: Log10 GI50 (converted)
HOP-62 = assay: cells; type: cell-based; details: Homo sapiens; HOP-62, non-small cell lung cancer, 48 h; read-out: Log10 GI50 (converted)
SW-620 = assay: NCI 60 cell line panel screening assay (SRB), SW-620; type: cell-based; details: Homo sapiens; SW-620, colon cancer, 48 h; read-out: Log10 GI50 (converted)
SK-MEL-28 = assay: cells; type: cell-based; details: Homo sapiens; SK-MEL-28, melanoma, 48 h; read-out: Log10 GI50 (converted)
OVCAR-8 = assay: cells; type: cell-based; details: Homo sapiens; OVCAR-8, ovarian cancer, 48 h; read-out: Log10 GI50 (converted)
786-0 = assay: cells; type: cell-based; details: Homo sapiens, 786-0, renal cancer, 48 h
K-562 = assay: cells; type: cell-based; details: Homo sapiens, K562; K-562, leukemia, 48 h; read-out: Log10 TGI (converted)
COLO 205 = assay: NCI 60 cell line panel screening assay (SRB), COLO 205; type: cell-based; details: Homo sapiens; COLO 205, colon cancer, 48 h; read-out: Log10 GI50 (converted)
MOLT-4 [2] = assay: cells; details: Homo sapiens
HOP-92 = assay: cells; type: cell-based; details: Homo sapiens; HOP-92, non-small cell lung cancer, 48 h; read-out: Log10 GI50 (converted)
A498 = assay: cells; type: cell-based; details: Homo sapiens, A498, renal cancer, 48 h
UACC-257 = assay: cells; type: cell-based; details: Homo sapiens, UACC-257, 48 h
HCT-116 = assay: cells; type: cell-based; details: Homo sapiens, HCT-116, 48 h; read-out: Log10 GI50 (converted)
SN12C = assay: NCI 60 cell line panel screening assay (SRB), SN12C; type: cell-based; details: Homo sapiens, renal cancer, 48 h, read-out: Log10 TGI
SNB-75 = assay: cells; type: cell-based; details: Homo sapiens; SNB-75, CNS cancer, 48 h; read-out: Log10 GI50 (converted)
NCI-H23 = assay: cells; type: cell-based; details: Homo sapiens; NCI-H23, non-small cell lung cancer, 48 h; read-out: Log10 GI50 (converted)
UACC-62 = assay: cells; type: cell-based; details: Homo sapiens, UACC-62, melanoma, 48 h
[3] = read-out: Log10 GI50 (converted)

C[C@@H]1CC[C@H]2[C@@H](C)C(=O)O[C@@H]3O[C@@]4(C)CC[C@@H]1[C@]32OO4 [Artemisinin]
> 100 µM: GI50 (NCI-H226) | GI50 (U251) | IC (TGI) (RXF 393) | GI50 (TK-10; [3]) | IC (TGI) (TK-10; read-out: Log10 TGI) | GI50 (KM12) | GI50 (RPMI-8226) | GI50 (OVCAR-5) | GI50 (HT29) | GI50 (HOP-62) | GI50 (SW-620) | GI50 (SK-MEL-28) | GI50 (OVCAR-8) | GI50 (786-0; [3]) | IC (TGI) (786-0; read-out: Log10 TGI) | GI50 (COLO 205) | IC50 (MOLT-4 [2]; MOLT-4, read-out: concentration for primary growth inhibition (PG +50)) | GI50 (HOP-92) | GI50 (A498; [3]) | IC (TGI) (A498; read-out: Log10 TGI) | GI50 (UACC-257; [3]) | IC (TGI) (UACC-257; read-out: Log10 TGI (converted)) | IC (TGI) (SN12C) | GI50 (SNB-75) | GI50 (NCI-H23) | GI50 (UACC-62; [3]) | IC (TGI) (UACC-62; read-out: Log10 TGI)
greater than 10^-4 M: concentration for cytostasis (PG 0) (MOLT-4 [1])
0.06: Range of Log10 TGI (60 cell line panel)
-4.00: Delta of Log10 LC50 (60 cell line panel)
100 µM: IC (TGI) (K-562) | IC (TGI) (MOLT-4 [2]; MOLT-4, 48 h, read-out: Log10 TGI) | GI50 (HCT-116)
18.6 µM: GI50 (MOLT-4 [2]; MOLT-4, 48 h, read-out: Log10 GI50 (converted))
